Key:
PPARγ = target: T1, PPARγ (Mus musculus, UniProt P37238); test: PPARγ radioligand binding assay (scintillation proximity); details: GST-PPARγ-LBD fusion protein on SPA beads
T1 construct: PPARγ (aa 174 to 476); made in house; host or cells: E. coli BL21 (pLysS)
T1 sequence (P37238 174-475 isoform P37238-2): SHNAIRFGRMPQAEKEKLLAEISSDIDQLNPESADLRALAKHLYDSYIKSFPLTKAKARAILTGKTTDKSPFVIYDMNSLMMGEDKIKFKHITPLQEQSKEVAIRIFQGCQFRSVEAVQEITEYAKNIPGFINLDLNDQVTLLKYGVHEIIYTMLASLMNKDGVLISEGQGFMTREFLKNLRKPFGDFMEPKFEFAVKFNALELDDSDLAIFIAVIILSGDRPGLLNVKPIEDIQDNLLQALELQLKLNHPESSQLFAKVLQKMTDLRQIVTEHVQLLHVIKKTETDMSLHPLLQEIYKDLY
Text: (§1) Background information on the performed assays can be found in: Nichols J S et al. “Development of a scintillation proximity assay for peroxisome proliferator-activated receptor gamma ligand binding domain”, (1998) Anal. Biochem. 257: 112-119.
(§2) Full-length cDNA clones for humans PPARδ and PPARα and mouse PPARγ were obtained by RT-PCR from human adipose and mouse liver cRNA, respectively, cloned into plasmid vectors and verified by DNA sequencing. Bacterial and mammalian expression vectors were constructed to produce glutathione-s-transferase (GST) and Gal4 DNA binding domain proteins fused to the ligand binding domains (LBD) of PPARδ (aa 139 to 442), PPARγ (aa 174 to 476) and PPARα (aa 167 to 469). To accomplish this, the portions of the cloned sequences encoding the LBDs were amplified from the full-length clones by PCR and then subcloned into the plasmid vectors. Final clones were verified by DNA sequence analysis.
(§3) Induction, expression, and purification of GST-LBD fusion proteins were performed in E. coli strain BL21 (pLysS) cells by standard methods (Ref: Current Protocols in Molecular Biology, Wiley Press, edited by Ausubel et al.).
(§4) Radioligand Binding Assay
PPARγ receptor binding was assayed in TKE50 (50 mM Tris-HCl, pH 8, 50 mM KCl, 2 mM EDTA, 0.1 mg/ml fatty acid-free BSA and 10 mM DTT). For each 96 well reaction an 140 ng equivalent of GST-PPARγ-LBD fusion protein was bound to 10 μg SPA beads (PharmaciaAmersham) in a final volume of 50 ul by shaking. The resulting slurry was incubated for 1 h at RT and centrifuged for 2 min at 1300 g. The supernatant containing unbound protein was removed and the semidry pellet containig the recptor-coated beads was resolved in 50 μl of TKE. […] All binding assays were performed in 96 well plates and the amount of bound ligand measured on a Packard TopCount using OptiPlates (Packard). Nonspecific binding was determined in the presence of 10^−4 M unlabelled compound. […]

PPARδ = target: T2, PPARδ (Homo sapiens, UniProt Q03181); test: PPARδ radioligand binding assay (scintillation proximity); details: GST-PPARδ-LBD fusion protein on SPA beads
T2 construct: PPARδ (aa 139 to 442); made in house; host or cells: E. coli BL21 (pLysS)
T2 sequence (Q03181 139-441 limits assumed): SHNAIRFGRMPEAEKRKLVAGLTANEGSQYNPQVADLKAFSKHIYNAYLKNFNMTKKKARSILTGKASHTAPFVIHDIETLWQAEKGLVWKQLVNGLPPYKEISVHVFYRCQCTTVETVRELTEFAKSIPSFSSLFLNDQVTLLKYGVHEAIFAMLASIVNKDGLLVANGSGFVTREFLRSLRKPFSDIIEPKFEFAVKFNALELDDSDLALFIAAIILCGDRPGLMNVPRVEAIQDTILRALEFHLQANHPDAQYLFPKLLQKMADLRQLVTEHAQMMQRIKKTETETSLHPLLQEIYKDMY
Text: as §1, §2, §3, §4
PPARδ receptor binding was assayed in HNM10 (50 mM Hepes, pH 7.4, 10 mM NaCl, 5 mM MgCl2, 0.15 mg/ml fatty acid-free BSA and 15 mM DTT). For each 96 well reaction a 500 ng equivalent of GST-PPARδ-LBD fusion protein and radioligand, e.g. 20000 dpm {2-methyl-4-[4-methyl-2-(4-trifluoromethyl-phenyl)-thiazol-5-yl-ditritiomethylsulfanyl]-phenoxy}-acetic acid, was bound to 10 μg SPA beads (PharmaciaAmersham) in a final volume of 50 μl by shaking. The resulting slurry was incubated for 1 h at RT and centrifuged for 2 min at 1300 g. […] Radioligand was added and the reaction incubated at RT for 1 h and scintillation proximity counting performed in the presence of test compounds was determined. All binding assays were performed in 96 well plates and the amount of bound ligand was measured on a Packard TopCount using OptiPlates (Packard). […]

PPARα = target: T3, PPARα (Homo sapiens, UniProt Q07869); test: PPARα radioligand binding assay (scintillation proximity); details: GST-PPARα-LBD fusion protein on SPA beads
T3 construct: PPARα (aa 167 to 469); made in house; host or cells: E. coli BL21 (pLysS)
T3 sequence (Q07869 167-468 limits assumed): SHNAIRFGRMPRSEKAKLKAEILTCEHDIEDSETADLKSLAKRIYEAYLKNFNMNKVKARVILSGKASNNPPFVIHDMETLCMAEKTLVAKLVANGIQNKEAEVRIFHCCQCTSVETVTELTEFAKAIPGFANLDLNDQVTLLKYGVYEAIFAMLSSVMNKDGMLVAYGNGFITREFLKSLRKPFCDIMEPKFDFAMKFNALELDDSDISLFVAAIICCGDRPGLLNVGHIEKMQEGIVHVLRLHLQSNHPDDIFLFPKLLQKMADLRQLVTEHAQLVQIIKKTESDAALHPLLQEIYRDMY
Text: as §1
as §2, with “analysis. […]” for “analysis.”
PPARα receptor binding was assayed in TKE50 (50 mM Tris-HCl, pH 8, 50 mM KCl, 2 mM EDTA, 0.1 mg/ml fatty acid-free BSA and 10 mM DTT). […] All binding assays were performed in 96 well plates and the amount of bound ligand measured on a Packard TopCount using OptiPlates (Packard). Nonspecific binding was determined in the presence of 10^−4 M unlabelled compound. […]

For `Cc1c(-c2ccc(Cl)cc2)nn(C)c1COc1ccc2ccn(CC(=O)O)c2c1` [Example 2, {6-[5-(4-Chloro-phenyl)-2,4-dimethyl-2H-pyrazol-3-ylmethoxy]-indol-1-yl}-acetic acid], the IC50 (PPARγ) was ≥ 10000 nM and the IC50 (PPARδ) was 140 nM.

`Cn1nc(-c2ccc(C(F)(F)F)cc2)c(Br)c1COc1ccc2ccn(CC(=O)O)c2c1` [Example 8, {6-[4-Bromo-2-methyl-5-(4-trifluoromethyl-phenyl)-2H-pyrazol-3-ylmethoxy]-indol-1-yl}-acetic acid] was tested, and the IC50 (PPARγ) was ≥ 10000 nM, the IC50 (PPARα) was 2570 nM and the IC50 (PPARδ) was 4 nM.

With `Cn1nc(-c2ccc(OC(F)(F)F)cc2)cc1CCCOc1ccc2ccn(CC(=O)O)c2c1` [Example 20, (6-{3-[2-Methyl-5-(4-trifluoromethoxy-phenyl)-2H-pyrazol-3-yl]-propoxy}-indol-1-yl)-acetic acid] the IC50 (PPARγ) was ≥ 10000 nM, the IC50 (PPARα) was 13 nM and the IC50 (PPARδ) was 43 nM.

Source: US7265149B2, “Indolyl derivatives” (Hoffmann-La Roche Inc., priority 2004, dated 2007)
